For the data set, the system named is HEK293T:hFAP tumor xenografts. Briefly: Ex vivo biodistribution of 68Ga-labeled tracers in HEK293T:hFAP tumor-bearing mice. As to the method: All imaging and biodistribution studies were performed using male NOD-scidIL2Rg^null (NRG) mice and conducted according to the guidelines established by the Canadian Council on Animal Care and approved by Animal Ethics Committee of the University of British Columbia. For tumor inoculations, mice were anesthetized by inhalation with 2% isoflurane in oxygen and implanted subcutaneously with 7.5×10^6 HEK293T:hFAP or U87 cells below the left shoulder. Imaging and biodistribution studies were performed only after tumors grew to 5-8 mm in diameter.
For ex vivo biodistribution studies, mice were injected with -1-3 MBq of the ^68Ga-labeled tracer. Mice were allowed to recover and roam freely in the cages after injecting the tracer. […] The uptake in each organ/tissue was normalized to the injected dose and expressed as the percentage of the injected dose per gram of tissue (% ID/g).
Biodistribution data for ^68Ga-SB03178, ^68Ga-SB04033, and ^68Ga-FAPI-4 in mice bearing FAP tumor xenografts are presented in Tables 5-7. Data are presented as mean±SD % ID/g.

Where [1] appears, read: HEK293T:hFAP tumor model, 1 h post-injection (n = 4), mean±SD.

With `C[C@@H](NC(=O)c1ccnc2c1cc(OCCCN1CCN(C(=O)CN3CCN(CC(=O)O)CCN(CC(=O)O)CCN(CC(=O)O)CC3)CC1)c1ccccc12)C(=O)N1CCC[C@H]1B(O)O` [^68Ga-SB04033, metal not drawn], the “Uptake in HEK293T:hFAP tumor xenografts, comparison in words” value (68Ga-SB03178 vs 68Ga-FAPI-4, 68Ga-SB04033 vs 68Ga-SB03178) is recorded as “weaker uptake”. Further, under setting [1], the “Biodistribution: Adrenal Glands” value was determined as 0.65 ± 0.46 % ID/g, the “Biodistribution: Blood” value is 3.62 ± 0.47 % ID/g, the “Biodistribution: Bone” value was 1.52 ± 0.22 % ID/g and the “Biodistribution: Brain” value stood at 0.08 ± 0.01 % ID/g. Under setting [1], the “Biodistribution: Fat” value came to 0.30 ± 0.15 % ID/g, the “Biodistribution: Heart” value came out at 0.95 ± 0.12 % ID/g, the “Biodistribution: Kidneys” value was 10.3 ± 0.55 % ID/g and the “Biodistribution: Large Intestines” value turned out to be 0.33 ± 0.03 % ID/g. In addition, under setting [1], the “Biodistribution: Liver” value was 1.06 ± 0.11 % ID/g, the “Biodistribution: Lungs” value was determined as 2.13 ± 0.33 % ID/g, the “Biodistribution: Muscle” value was 0.54 ± 0.11 % ID/g and the “Biodistribution: Pancreas” value was found to be 0.62 ± 0.05 % ID/g. Further, under setting [1], the “Biodistribution: Small Intestine” value was determined as 1.53 ± 0.20 % ID/g, the “Biodistribution: Spleen” value turned out to be 0.98 ± 0.27 % ID/g, the “Biodistribution: Stomach” value came out at 0.30 ± 0.10 % ID/g and the “Biodistribution: Testes” value turned out to be 0.59 ± 0.07 % ID/g. In addition, under setting [1], the “Biodistribution: Tumor” value was 5.95 ± 0.16 % ID/g.

The values are drawn from US20250161501A1, “Radiolabeled Compounds for Imaging of Fibroblast Activation Protein (FAP) and Treatment of FAP-Related Disorders” (Provincial Health Services Authority, priority 2022, published 2025).
